Patent publication EP0337714A2, “HIV protease inhibitors useful for the treatment of aids” (priority 1988, dated 1989)

How the values were obtained:
HIV protease [1] = target: T1, HIV protease (Human immunodeficiency virus type 1 group M subtype B, UniProt P03366); assay: Assay for Inhibition of Synthetic Viral Protease (HPLC of peptide substrate cleavage products); assay type: biochemical; conditions: synthetic protease (residues 69-167 of the pol open reading frame), substrate Val-Ser-Gln-Asn-Tyr-Pro-Ile-Val 2 mg/mL, 50 mM Na acetate, pH 5.5, 30 C, 1 hour; read-out: ICso
T1 construct: made in house; host or cells: Escherichia coli
Experimental: Assay for Inhibition of Synthetic Viral Protease
Inhibition studies of the reaction of the synthetic protease [amino acid residues 69-167 of the pol open reading frame in Ratner, L. et al, Nature, 313, 277 (1985) and synthesized by Merrifield solid-phase synthesis] with a peptide substrate[Val-Ser-Gln-Asn-Tyr-Pro-Ile-Val, 2 mg/mL when the reaction is initiated) were in 50 mM Na acetate, pH 5.5, at 30 C for 1 hour. Various concentrations of inhibitor in 1.0 µl DMSO were added to 36 µl of assay solution and the reaction initiated by the addition of 4 ul (1.6 µg) of synthetic protease. The reaction was quenched with 160 ul of 12% acetic acid. Products of the reaction were separated by HPLC (VYDAC wide pore 5 cm C-18 reverse phase, acetonitrile gradient, 0.1% trifluoroacetic acid). The extent of inhibition of the reaction was determined from the peak heights of the products. HPLC of the products, independently synthesized, provided quantitation standards and confirmation of the product composition.

HIV protease [2] = target: T1, HIV protease; assay: biochemical; conditions: protease expressed in Eschericia coli, substrate Val-Ser-Gln-Asn-(betanapthyl)Ala-Pro-ile-Val 0.5 mg/mL, 50 mM Na acetate, pH 5.5, 30°, 1 hour; read-out: ICso
Experimental: Assay for Inhibition of Microbial Expressed Viral Protease
Inhibition studies of the reaction of the protease expressed in Eschericia coli with a peptide substrate [Val-Ser-Gln-Asn-(betanapthyl)Ala-Pro-ile-Val, 0.5 mg/mL at the time the reaction is initiated] were in 50 mM Na acetate, pH 5.5, at 30° for 1 hour. Various concentrations of inhibitor in 1.0 ul DMSO were added to 25 ui of the peptide solution in water. The reaction is initiated by the addition of 15 ul of 0.33 nM protease (0.11 ng) in a solution of 0.133 M Na acetate pH 5.5 and 0.267% bovine serum albumin. The reaction was quenched with 160 ul of 5% phosphoric acid. Products of the reaction were separated by HPLC (VYDAC wide pore 5 cm C-18 reverse phase, acetonitrile gradient, 0.1% phosphoric acid). The extent of inhibition of the reaction was determined from the peak heights of the products.
Additional compounds were tested by the assay of Example 9.

Compound | IC50 (HIV protease [1]) [nM] | IC50 (HIV protease [2]) [nM]
CC(C)(C)OC(=O)N[C@@H](Cc1ccccc1)[C@@H](O)C[C@@H](Cc1ccccc1)C(=O)NCc1ccccc1 [Compound III] | ~50 | ~120
CC(C)C[C@H](NC(=O)[C@H](Cc1ccccc1)C[C@H](O)[C@H](Cc1ccccc1)NC(=O)OC(C)(C)C)C(=O)N[C@@H](Cc1ccccc1)C(N)=O [Compound I, N'-(1,1-Dimethylethoxycarbonyl)-5(S)-amino-4(S)-hydroxy-6-phenyl-2(R)-(phenylmethyl)-hexanoyl-Leucyl-phenylalanyl amide] | ~2 | ~0.6
CC(C)C[C@H](NC(=O)[C@H](Cc1ccccc1)C[C@H](O)[C@H](Cc1ccccc1)NC(=O)OC(C)(C)C)C(=O)NCc1ccccc1 [Compound II, N-Benzyl-N'-(1,1-dimethylethexycarbonyl)-5(S)-amino-4(S)-hydroxy-6-phenyl-2(R)-(phenylmethyl)hexanoyl-leucyl-amide] | – | ~1.4
CC(C)C[C@H](NC(=O)[C@H](Cc1ccccc1)C[C@H](O)[C@H](CC1CCCCC1)NC(=O)OC(C)(C)C)C(=O)N[C@@H](Cc1ccccc1)C(N)=O [Compound IV, N'-(1,1-dimethylethoxycarbonyl)-5(S)-amino-4(S)-hydroxy-6-cyclohexyl-2(R)-(phenylmethyl)hexanoyl-leucyl-phenylalanylamide] | ~27 | –
